The record followed here is publication PMC6439305 (iScience, 2019).

This assay addresses MOR-Venus (mu opioid receptor fused to Venus-YFP) (Mus musculus, UniProt P42866). Nature of the assay: Galphai2/Ggamma2 BRET2 dissociation assay, HEK293. To be noted: agonist, 10 min stimulation. In kind it is cell-based. For orientation: Bioluminescence resonance energy transfer reports proximity on the nanometre scale.

Chain of MOR-Venus (mu opioid receptor fused to Venus-YFP) (P42866 whole entry, the tested form may be a part): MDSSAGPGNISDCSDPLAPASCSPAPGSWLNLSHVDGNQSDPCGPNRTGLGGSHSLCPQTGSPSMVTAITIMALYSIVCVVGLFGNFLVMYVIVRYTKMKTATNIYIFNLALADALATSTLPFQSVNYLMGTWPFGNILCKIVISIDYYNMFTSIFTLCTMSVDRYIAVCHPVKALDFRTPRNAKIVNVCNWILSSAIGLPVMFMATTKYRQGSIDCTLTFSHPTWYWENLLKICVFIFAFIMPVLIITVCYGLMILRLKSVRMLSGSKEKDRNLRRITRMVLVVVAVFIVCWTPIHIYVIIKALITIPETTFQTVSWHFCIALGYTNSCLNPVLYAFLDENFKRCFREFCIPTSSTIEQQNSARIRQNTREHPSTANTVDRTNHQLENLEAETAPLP

Regarding `COc1ccc2c3c1O[C@H]1C(=O)CC[C@@]4(O)[C@@H](C2)N(C)CC[C@]314` [oxycodone], the EC50 result was “except for oxycodone, which had a trend of lower potency”.
